The values that follow are results of earlier work, collected in patent US7049120B2, “Regulation of human mrp5-like protein” (Bayer HealthCare AG, priority 2001, dated 2006).

The target in data set [1] is T1, MRP5 (Homo sapiens, UniProt O15440). Set-up: host or cells: polarized Madin-Darby canine kidney II (MDCK II) cells, transfected. As to conditions: polarized MDCK II cells overexpressing human MRP5; Wijnholds et al., 2000.
The target of data set [2] is T1, MRP5. Set-up: host or cells: polarized Madin-Darby canine kidney II (MDCK II) cells, transfected. As to conditions: MDCK II cells transfected with human MRP5; Wijnholds et al., 2000.
For data set [3], the target named is T1, MRP5. Set-up: host or cells: V79 hamster lung fibroblasts, stably expressing. The following applies: MRP5 stably expressed in V79 hamster lung fibroblasts; Jedlitschsky et al., 2000.

T1 sequence (O15440 whole entry): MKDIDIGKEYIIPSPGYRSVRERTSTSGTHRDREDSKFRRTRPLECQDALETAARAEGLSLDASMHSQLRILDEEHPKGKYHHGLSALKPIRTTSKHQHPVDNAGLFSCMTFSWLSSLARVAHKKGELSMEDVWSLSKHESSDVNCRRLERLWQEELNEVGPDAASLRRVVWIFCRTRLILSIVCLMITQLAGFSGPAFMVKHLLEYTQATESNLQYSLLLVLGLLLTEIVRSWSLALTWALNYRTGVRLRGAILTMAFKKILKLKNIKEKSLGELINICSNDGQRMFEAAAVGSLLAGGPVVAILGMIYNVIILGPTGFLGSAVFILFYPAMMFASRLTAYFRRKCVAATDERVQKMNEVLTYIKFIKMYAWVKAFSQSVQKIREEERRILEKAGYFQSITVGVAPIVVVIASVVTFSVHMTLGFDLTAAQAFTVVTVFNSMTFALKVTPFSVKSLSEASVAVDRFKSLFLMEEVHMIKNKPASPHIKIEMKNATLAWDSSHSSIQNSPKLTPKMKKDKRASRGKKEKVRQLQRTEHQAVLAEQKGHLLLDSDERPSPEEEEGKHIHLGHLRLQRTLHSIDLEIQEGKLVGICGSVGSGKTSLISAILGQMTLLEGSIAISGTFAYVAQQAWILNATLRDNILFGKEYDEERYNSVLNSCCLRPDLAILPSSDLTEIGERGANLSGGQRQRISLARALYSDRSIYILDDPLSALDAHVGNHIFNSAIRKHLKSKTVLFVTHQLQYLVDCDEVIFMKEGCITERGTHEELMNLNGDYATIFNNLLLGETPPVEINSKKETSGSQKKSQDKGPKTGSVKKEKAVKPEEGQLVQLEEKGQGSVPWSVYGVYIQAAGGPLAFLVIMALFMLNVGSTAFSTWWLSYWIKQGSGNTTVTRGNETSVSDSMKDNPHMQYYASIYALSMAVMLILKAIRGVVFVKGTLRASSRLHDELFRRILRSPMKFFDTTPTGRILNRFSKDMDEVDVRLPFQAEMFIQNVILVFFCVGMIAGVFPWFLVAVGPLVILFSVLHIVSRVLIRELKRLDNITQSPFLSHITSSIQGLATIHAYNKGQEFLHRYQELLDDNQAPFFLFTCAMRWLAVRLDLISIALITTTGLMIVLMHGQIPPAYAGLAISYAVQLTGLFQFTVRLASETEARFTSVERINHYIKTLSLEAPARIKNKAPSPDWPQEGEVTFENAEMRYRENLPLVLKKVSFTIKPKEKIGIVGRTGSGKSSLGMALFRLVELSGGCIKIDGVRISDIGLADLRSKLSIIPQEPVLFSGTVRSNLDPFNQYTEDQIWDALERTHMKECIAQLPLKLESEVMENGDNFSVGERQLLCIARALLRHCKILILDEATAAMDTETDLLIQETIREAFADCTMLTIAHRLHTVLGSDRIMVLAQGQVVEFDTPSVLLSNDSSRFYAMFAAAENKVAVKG

Regarding `Sc1ncnc2nc[nH]c12` [6-mercaptopurine], the “resistance of MRP5-overexpressing cells to the drug” value on MRP5 [1] is given as “resistant”. Take `Nc1ncnc2c1ncn2CCOCP(=O)(O)O` [PMEA, 9-(2-phosphonylmethoxyethyl)-adenine]: the “transport of the drug by MRP5-transfected cells” value at MRP5 [2] is given as “transport”. For the compound `CCCOc1ccccc1-c1nc2nn[nH]c2c(=O)[nH]1` [Zaprinast], the “inhibition of MRP5-mediated transport of cyclic nucleotides such as cGMP” value (shortened to “inhibition”) on MRP5 [3] is listed as “inhibited”. As to `Nc1nc2nc[nH]c2c(=S)[nH]1` [thioguanine], the “resistance of MRP5-overexpressing cells to the drug” value on MRP5 [1] is “resistant”.

Take `CCCc1nn(C)c2c(=O)[nH]c(-c3cc(S(=O)(=O)N4CCN(C)CC4)ccc3OCC)nc12` [Sildenafil]: at MRP5 [3], the “inhibition” value is “inhibited”. As for `COc1cc2c(cc1OC)-c1c/c(=N\c3c(C)cc(C)cc3C)n(C)c(=O)n1CC2` [Trequinsin], at MRP5 [3], the “inhibition” value is on record as “inhibited”.
